According to patent US12441706B2, “Protein degradation agent compound preparation method and application” (SHANGHAI JEMINCARE PHARMACEUTICALS CO., LTD., priority 2019, dated 2025):

How the values were obtained:
VCap cells = assay: Inhibition of proliferation of VCap cells (Cell Titer Glo, 6 days); assay type: cell-based; settings: Homo sapiens, VCaP, 144 h
Method: Tumor cell line VCap FGC (ATCC catalog number CRL-2876) was cultured in DMEM (Gibco catalog number 11965-092) medium containing 10% FBS (Gibco catalog number 10099-141C), respectively. During the determination, Vcap cells were replaced with DMEM medium containing 5% FBS and 0.1 nM R1881 (Sigma catalog number R0908).
Vcap FGC cells were inoculated in a 384-well plate (Perkin Elmer catalog number 6007460) at a cell density of 1200 cells/well in a volume of 20 μL/well and incubated overnight in a carbon dioxide incubator (Thermo). The prepared compound solutions of different concentrations were added in a volume of 5 μL/well. The corresponding vehicle control was set at the same time. After being cultured in the incubator for 6 days, the cell plate and the contents were equilibrated to room temperature, and 25 μL of Cell Titer Glor (Promega catalog number G7573) was added to each well, shake and mix well, incubated in dark for 10-30 minutes, and the signal values were detected though Envision microplate reader (PerkinElmer).
The percentage inhibition rate of compound-treated wells was calculated from vehicle control wells on the plate, and the percentage inhibition rate data corresponding to different concentrations were fitted by GraphPad prism, and the IC50 values were calculated by 4-parameter nonlinear logic formula.

[1] = test system: human prostate cancer VCaP cell subcutaneous xenograft tumor; assay: In vivo pharmacodynamic study, human prostate cancer VCaP cell subcutaneous xenograft tumor CB17 SCID mouse model; settings: for tumor growth inhibition rate (TGI): castrated CB17 SCID mice, 24th day after administration
Method: Experimental animal: male mice of CB17 SCID strain, aged 6-8 weeks, weighing 18-22 grams, supplier: Beijing Weitong Lihua Laboratory Animal Technology Co., Ltd. Shanghai Branch, animal certificate number: 20170011005577. Animals were reared in the experimental environment for 7 days after arrival and the experiment was started.
Experimental method: Human prostate cancer cell VCaP cells (ATCC-CRL-2876) were cultured in vitro in monolayer, and the culture conditions were DMEM medium with 20% fetal bovine serum, 100 U/mL penicillin and 100 μg/mL streptomycin, cultured in a 5% CO2 incubator at 37° C. Conventional digestion with trypsin-EDTA was performed twice a week for passage. When the cell saturation was 80%-90% and the number reached the requirement, the cells were collected, counted, and inoculated. 0.2 mL (10× 10^6 cells+Matrigel) VCaP cells were subcutaneously inoculated into the left upper limb of each mouse, and castration was performed 33 days after cell inoculation. When the average tumor volume reached 119 mm^3, the drugs were administered in groups, and the doses of compound 14 were set to four groups: 1 mg/kg, 3 mg/kg, 10 mg/kg and 30 mg/kg.
Daily observation of experimental animals: the health status and death of animals were monitored every day. Routine examinations included observing the effects of tumor growth and drug treatment on the daily behavior of animals, such as behavioral activities, food and water intake (visual observation only), and weight changes (body weight measured three times a week), physical signs or other abnormal conditions.
Tumor measurements and experimental indicators: Experimental indicators were to examine whether tumor growth was inhibited, delayed or cured. Tumor diameters were measured with vernier calipers three times a week.
The calculation formula of tumor volume is: V=0.5a×b2, where a and b represented the long diameter and short diameter of the tumor, respectively. The antitumor effect of the compound was evaluated by TGI (%) or relative tumor proliferation rate T/C (%). TGI (%), reflecting the tumor growth inhibition rate. Calculation of TGI (%): TGI (%)=[1−(average tumor volume at the end of administration of a certain treatment group−average tumor volume at the beginning of administration of the treatment group)/(average tumor volume at the end of treatment in the vehicle control group−average tumor volume at the beginning of treatment in the vehicle control group)]×100%. Relative tumor proliferation rate T/C (%): the calculation formula is as follows: T/C %=TRTV/CRTV×100% (TRTV: RTV in the treatment group; CRTV: RTV in the negative control group). The relative tumor volume (RTV) was calculated according to the results of tumor measurement, and the formula is RTV=Vt/V0, where V0 is the average tumor volume measured at the time of group administration (i.e. d0), and Vt is the average tumor volume at a certain measurement, and TRTV and CRTV were taken on the same day. After the experiment, the tumor weight would be detected, and the percentage of T/Cweight would be calculated. Tweight and Cweight represent the tumor weight of the administration group and the vehicle control group, respectively.
Statistical analysis: Statistical analysis included the mean and standard error (SEM) of tumor volume at each time point for each group. […] T-test was used for comparison between two groups, and one-way ANOVA was used for comparison between three or more groups. […]

## CC1(C)C(=O)N(c2ccc(C#N)c(Cl)c2)c2ccc(-c3ccc(N4CC(CN5CCN(c6ccc7c(c6)C(=O)N(C6CCC(=O)NC6=O)C7=O)CC5)C4)nc3F)cc21 (centres unmarked) [Compound 14]
VCap cells
  Emax: 94%
  IC50: 67 nM
[1]; 10 mpk and 30 mpk, CB17 SCID mice
  tolerance (body weight, FIG. 2): better tolerance than Reference substance 1
[1]; dose 10 mpk
  tumor growth inhibition rate (TGI): 96%
[1]; dose 30 mpk
  tumor growth inhibition rate (TGI): 96%
